Assay results reported in USRE31731E, “Herbicidal 4-trifluoromethyl-4-nitrodiphenyl ethers” (priority 1978, dated 1984).

Legend:
Type in all cases: in vivo
[1] = test system: rice; assay: Crop tolerance, rice; settings: 50% or less kill of crop at rates giving more than 50% kill of weeds
Protocol: (§1) The following test procedure is employed. Seeds of selected crops and weeds are planted in soil in flats. For preemergence tests, the flats are treated with the test compound immediately after the planting. For postemergence tests, the seeds are allowed to germinate, and after 2 weeks the flats are treated with the test compound. The compound to be evaluated is dissolved in acetone, diluted with water, and sprayed over the flats using a carrier volume equivalent to 50 gallons per acre at the rate of application (pounds per acre, lb/A.) specified in the tables. About 2 weeks after the application of the test compound, the state of growth of the plants is observed and the phytotoxic effect of the compound is evaluated. Table II gives the average percent control achieved by the test compounds in terms of the percent of the plants which are killed by the compounds.
(§2) Following the general test procedure of Example 73, diphenyl ethers are evaluated for significant tolerance (as shown by 50% or less kill of the test crop at levels of application which give more than 50% kill of many or all of the weeds of Example 73) towards some or all of the following common agronomic crops (not all compounds tested against all crops): alfalfa, snapbeans, corn, cotton, cucumbers, peanuts, rape, rice, safflower, soybeans, tomatoes, and wheat.

[2] = test system: soybeans; assay: Crop tolerance, soybeans; settings: 50% or less kill of crop at rates giving more than 50% kill of weeds
Protocol: as §1, §2

[3] = test system: peanuts; assay: Crop tolerance, peanuts; settings: 50% or less kill of crop at rates giving more than 50% kill of weeds
Protocol: as §1, §2

[4] = test system: cotton; assay: Crop tolerance, cotton; settings: 50% or less kill of crop at rates giving more than 50% kill of weeds
Protocol: as §1, §2

[5] = test system: Monocots; assay: Herbicidal activity, preemergence, monocot weeds (Table II); settings: pre-emergence, 336 h, about 2 weeks, read-out: % control (percent of plants killed); for pest or weed control at 4483.4 g/ha: 4 lb./A.; for pest or weed control at 2241.7 g/ha: 2 lb./A.
Procedure, shortened: (§3)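 Value is mean percent kill, judged roughly 2 weeks post-treatment. Acetone/water spray at 50 gal/A, given either right after sowing in soil flats (preemergence) or once seedlings were 2 weeks old (postemergence); rates in lb/A.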

[6] = test system: Dicots; assay: Herbicidal activity, preemergence, dicot weeds (Table II); settings: pre-emergence, 336 h, about 2 weeks, read-out: % control (percent of plants killed); for pest or weed control at 4483.4 g/ha: 4 lb./A.; for pest or weed control at 2241.7 g/ha: 2 lb./A.
Procedure, shortened: (§4)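 Plants were scored roughly 2 weeks post-treatment for percent kill (average percent control). Treatment was an acetone–water spray in 50 gal/acre carrier at the listed pounds per acre, applied either immediately after sowing or to 2-week-old seedlings.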

[7] = test system: safflower; assay: Crop tolerance, safflower; settings: preemergence; 50% or less kill of crop at rates giving more than 50% kill of weeds
Protocol: as §1, §2

[8] = test system: Dicots; assay: Herbicidal activity, postemergence, dicot weeds (Table II); settings: post-emergence, 336 h, about 2 weeks, read-out: % control (percent of plants killed); for pest or weed control at 4483.4 g/ha: 4 lb./A.; for pest or weed control at 2241.7 g/ha: 2 lb./A.
Procedure, shortened: as §4

[9] = test system: Monocots; assay: Herbicidal activity, postemergence, monocot weeds (Table II); settings: post-emergence, 336 h, about 2 weeks, read-out: % control (percent of plants killed); for pest or weed control at 4483.4 g/ha: 4 lb./A.; for pest or weed control at 2241.7 g/ha: 2 lb./A.
Procedure, shortened: as §3

[10] = test system: corn; assay: Crop tolerance, corn; settings: 50% or less kill of crop at rates giving more than 50% kill of weeds
Protocol: as §1, §2

[11] = test system: snapbeans; assay: Crop tolerance, snapbeans; settings: preemergence; 50% or less kill of crop at rates giving more than 50% kill of weeds
Protocol: as §1, §2

[12] = test system: wheat; assay: Crop tolerance, wheat; settings: 50% or less kill of crop at rates giving more than 50% kill of weeds
Protocol: as §1, §2

[13] = postemergence or on transplanted rice

CCOc1cc(Oc2ccc(C(F)(F)F)cc2Cl)ccc1[N+](=O)[O-] [Example 3, 2-Chloro-α,α,α-trifluoro-p-tolyl-3-ethoxy-4-nitrophenyl ether]
Tolerance to rice [1, 13]: Tolerance
Tolerance to soybeans ([2]; postemergence or layby): Tolerance
Tolerance to soybeans ([2]; preemergence): Tolerance
Tolerance to peanuts ([3]; preemergence): Tolerance
Tolerance to cotton ([4]; postemergence or layby): Tolerance
Tolerance to cotton ([4]; preemergence): Tolerance
pest or weed control at 4483.4 g/ha [5]: 89%
pest or weed control at 11208.5 g/ha ([5]; 10 lb./A.): 99%
pest or weed control at 4483.4 g/ha [6]: 99%
pest or weed control at 11208.5 g/ha ([6]; 10 lb./A.): 100%
Tolerance to safflower [7]: Tolerance
pest or weed control at 4483.4 g/ha [8]: 100%
pest or weed control at 11208.5 g/ha ([8]; 10 lb./A.): 100%
pest or weed control at 4483.4 g/ha [9]: 99%
pest or weed control at 11208.5 g/ha ([9]; 10 lb./A.): 100%

CC(C)Oc1cc(Oc2ccc(C(F)(F)F)cc2Cl)ccc1[N+](=O)[O-] [Example 4]
Tolerance to rice ([1]; preemergence): Tolerance
Tolerance to soybeans ([2]; preemergence): Tolerance
Tolerance to peanuts ([3]; postemergence): Tolerance
Tolerance to cotton ([4]; preemergence): Tolerance
pest or weed control at 4483.4 g/ha [5]: 98%
Tolerance to corn ([10]; postemergence): Tolerance
Tolerance to corn ([10]; preemergence): Tolerance
Tolerance to snapbeans [11]: Tolerance
pest or weed control at 4483.4 g/ha [6]: 100%
Tolerance to wheat ([12]; postemergence): Tolerance
Tolerance to wheat ([12]; preemergence): Tolerance
pest or weed control at 4483.4 g/ha [8]: 100%
pest or weed control at 4483.4 g/ha [9]: 80%

CCOC(=O)C(C)Oc1cc(Oc2ccc(C(F)(F)F)cc2Cl)ccc1[N+](=O)[O-] (stereo not drawn) [Example 26, 2-Chloro-α,α,α-trifluoro-p-tolyl-3-(1-carbethoxyethoxy)-4-nitrophenyl ether]
Tolerance to soybeans ([2]; preemergence): Tolerance
pest or weed control at 2241.7 g/ha [5]: 75%
pest or weed control at 4483.4 g/ha [5]: 98%
Tolerance to corn ([10]; postemergence): Tolerance
Tolerance to snapbeans [11]: Tolerance
pest or weed control at 2241.7 g/ha [6]: 99%
pest or weed control at 4483.4 g/ha [6]: 100%
Tolerance to wheat ([12]; preemergence): Tolerance
pest or weed control at 2241.7 g/ha [8]: 100%
pest or weed control at 4483.4 g/ha [8]: 100%
pest or weed control at 2241.7 g/ha [9]: 93%
pest or weed control at 4483.4 g/ha [9]: 99%

C#CC(C)Oc1cc(Oc2ccc(C(F)(F)F)cc2Cl)ccc1[N+](=O)[O-] (centres unmarked) [Example 30]
Tolerance to rice [1, 13]: Tolerance
Tolerance to rice ([1]; preemergence): Tolerance
Tolerance to soybeans ([2]; preemergence): Tolerance
Tolerance to peanuts ([3]; preemergence): Tolerance
Tolerance to cotton ([4]; preemergence): Tolerance
pest or weed control at 2241.7 g/ha [5]: 78%
pest or weed control at 4483.4 g/ha [5]: 81%
pest or weed control at 2241.7 g/ha [6]: 94%
pest or weed control at 4483.4 g/ha [6]: 99%
Tolerance to wheat ([12]; postemergence): Tolerance
pest or weed control at 2241.7 g/ha [8]: 100%
pest or weed control at 4483.4 g/ha [8]: 100%
pest or weed control at 2241.7 g/ha [9]: 91%
pest or weed control at 4483.4 g/ha [9]: 75%

CSCCOc1cc(Oc2ccc(C(F)(F)F)cc2Cl)ccc1[N+](=O)[O-] [Example 40]
Tolerance to rice [1, 13]: Tolerance
Tolerance to rice ([1]; preemergence): Tolerance
Tolerance to soybeans ([2]; preemergence): Tolerance
Tolerance to peanuts ([3]; postemergence): Tolerance
Tolerance to peanuts ([3]; preemergence): Tolerance
pest or weed control at 2241.7 g/ha [5]: 88%
pest or weed control at 4483.4 g/ha [5]: 86%
Tolerance to corn ([10]; postemergence): Tolerance
Tolerance to corn ([10]; preemergence): Tolerance
pest or weed control at 2241.7 g/ha [6]: 98%
pest or weed control at 4483.4 g/ha [6]: 92%
Tolerance to wheat ([12]; preemergence): Tolerance
pest or weed control at 2241.7 g/ha [8]: 100%
pest or weed control at 4483.4 g/ha [8]: 100%
pest or weed control at 2241.7 g/ha [9]: 81%
pest or weed control at 4483.4 g/ha [9]: 64%

CCN(CCO)c1cc(Oc2ccc(C(F)(F)F)cc2Cl)ccc1[N+](=O)[O-] [Example 54]
Tolerance to rice [1, 13]: Tolerance
Tolerance to rice ([1]; preemergence): Tolerance
Tolerance to soybeans ([2]; preemergence): Tolerance
Tolerance to peanuts ([3]; postemergence): Tolerance
pest or weed control at 2241.7 g/ha [5]: 98%
pest or weed control at 4483.4 g/ha [5]: 83%
Tolerance to corn ([10]; postemergence): Tolerance
Tolerance to corn ([10]; preemergence): Tolerance
pest or weed control at 2241.7 g/ha [6]: 98%
pest or weed control at 4483.4 g/ha [6]: 75%
Tolerance to wheat ([12]; postemergence): Tolerance
Tolerance to wheat ([12]; preemergence): Tolerance
pest or weed control at 2241.7 g/ha [8]: 100%
pest or weed control at 4483.4 g/ha [8]: 100%
pest or weed control at 2241.7 g/ha [9]: 71%
pest or weed control at 4483.4 g/ha [9]: 79%
